Target: T1, rhodanese (thiosulfate sulfurtransferase, Type II) (Bos taurus, UniProt P00586)
T1 construct: Bovine liver rhodanese; purchased Sigma-Aldrich; host or cells: bovine liver
T1 sequence (P00586 1-297): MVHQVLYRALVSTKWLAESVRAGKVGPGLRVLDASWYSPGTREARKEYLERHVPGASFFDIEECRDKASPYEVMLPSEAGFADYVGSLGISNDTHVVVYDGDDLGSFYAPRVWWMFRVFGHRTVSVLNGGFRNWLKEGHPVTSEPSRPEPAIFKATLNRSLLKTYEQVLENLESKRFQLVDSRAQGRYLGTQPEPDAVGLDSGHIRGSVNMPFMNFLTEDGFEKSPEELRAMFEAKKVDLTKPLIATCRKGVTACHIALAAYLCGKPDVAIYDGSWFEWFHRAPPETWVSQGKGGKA
Experiment: Rhodanese activity, conversion of cyanide to thiocyanide (Sörbo method)
Type: biochemical, bovine
Details: 100 μM compound; room temperature 5 min; mean ± S.D.
Description: Figure 2 Selectivity assessment of hit compounds for 3MST over other H2S/polysulfides-producing enzymes and rhodanese. (a) 3MST-Inhibitory activity of hit compounds at 10 and 100 μM in cell lysate of 3MST-expressing HEK293 cells. 100 μM 3MP and 100 μM DTT were added to the solution containing 0.1% DMSO as a cosolvent, and the mixture was incubated at 37 °C for 15 min. H2S production was measured by gas chromatography. All data are presented as the mean ± S.D. (100 μM: n = 3 or 4; 10 μM: n = 3). (b) Selectivity assessment of hit compounds at 100 μM towards CBS and CSE. Only DMSO was added to the control sample instead of DMSO solution containing hit compounds. H2S production was monitored by gas chromatography. All data are presented as the mean (n = 3). (c) Detection method for rhodanese activity (Sörbo method). (d) Selectivity assessment of hit compounds towards rhodanese. The results are mean ± S.D. (n = 4, three times). These values were determined based upon the absorbance of [Fe(SCN)3] at 460 nm (Sӧrbo method). Bovine rhodanese 1.3–1.7 units/mL, substrate: 52 mM Na2S2O3, 50 mM KCN, 0.004% (w/v) BSA, 100 μM compound and DMSO 1% (v/v) in 88 mM potassium phosphate buffer (pH 8.6) at room temperature for 5 min incubation. (e) Fluorescence confocal microscopic images of live COS7 cells transfected with 3MST or an empty vector[9] as a control. Cells were incubated with 50 μM SSP4, a fluorescent probe for sulfane sulfur, and 10 μM, 1 μM, 0.5 μM, 0.1 or 0 μM compound 3 in DMEM containing 0.6% DMSO for 30 min, then washed with HBSS and placed in fresh DMEM with 0‒10 μM compound 3 (Pre). 500 μM 3MP was added to the cells and the cells were incubated for 10 min (10 min). (f) Graphic representation of (e). F/F0 was calculated by dividing the fluorescence intensity of cells after addition of 500 μM 3MP (10 min) by that of cells before addition of 500 μM 3MP (Pre), then the mean F/F0 was determined from 5 cells. All data represent the mean ± standard error of the mean (SEM) of three experiments.
Following reagents were prepared.
B. 125 mM sodium thiosulfate (Na2S2O3) solution
C. 250 mM potassium cyanide (KCN) solution in reagent A
D. 14% (w/v) nitric acid (HNO3) solution
E. 410 mM ferric nitrate (Fe(NO3)3) in reagent D
F. 37% formaldehyde solution
G. 12.5 mM sodium thiosulfate (Na2S2O3) solution with 0.025% bovine serum albumin H. rhodanese solution in reagent G […]
Mixed by pipetting and equilibrate d to room
Reagent H (Enzyme Solution) 16 µL 16 µL - Mixed by pipetting and incubate d at 25℃ for exactly 5 minutes , and then added […]
Mixed by pipetting and then added […]
Mixed by pipetting , transferred the solution 44 µL 44 µL 44 µL […]
Mixed by pipetting and recorded the A460 nm for the Test, Control and Blank using a microplate […]
Supplementary Figure S10. […]

First: NC(=O)c1ccsc1NC(=O)CSc1nc2ccccc2c(=O)[nH]1 [compound 1]
Second: Cc1cc(=O)[nH]c(SCC(=O)c2cccc3ccccc23)n1 [compound 3]
The “Inhibition of rhodanese conversion of cyanide ions to thiocyanide ions” value of the first is higher: 18.2 ± 3.6% for the first, 1.7 ± 6.7% for the second.

`Cc1sc2nc(SCC(=O)c3ccc(O)cc3O)[nH]c(=O)c2c1C` [compound 2] and `O=C(O)c1cccc(NS(=O)(=O)c2ccccc2)c1` [compound 5] are within error of each other in “Inhibition of rhodanese conversion of cyanide ions to thiocyanide ions” value: 10.9 ± 5.5% for the first, 9.7 ± 4.5% for the second.

From publication PMC5228037, “Discovery and Mechanistic Characterization of Selective Inhibitors of H2S-producing Enzyme: 3-Mercaptopyruvate Sulfurtransferase (3MST) Targeting Active-site Cysteine Persulfide” (Scientific Reports, 2017)
